US9233167B2, “Oligomer-opioid agonist conjugates” (NEKTAR THERAPEUTICS, priority 2007, dated 2016)

Assays:
[1] = biological target: recombinant human kappa opioid receptor (Homo sapiens (Human), UniProt P41145); format: binding
Procedure: (§1) Using conventional receptor binding assay techniques, several molecules were assayed to determine binding activity at kappa, mu and delta opioid subtypes of opioid receptors.
(§2) Cells were plated in 24 well plates at a density of 0.2-0.3*10^6 cells/well and washed with assay buffer containing 50 mM Tris.HCl and 5 mM MgCl2 (pH 7.4). Competition binding assays were conducted in whole cells incubated with increasing concentrations of test compounds in the presence of appropriate concentration of radioligand. 0.5 nM ^3H Naloxone, 0.5 nM ^3H Diprenorphine and 0.5 nM ^3H DPDPE were used as the competing radioligands for mu, kappa and delta receptors respectively. Incubations were carried out for two hours at room temperature using triplicate wells at each concentration. At the end of the incubation, cells were washed with 50 mM Tris HCl (pH 8.0), solubilized with NaOH and bound radioactivity was measured using a scintillation counter.
(§3) Specific binding is determined by subtraction of the cpm bound in the presence of 50-100× excess of cold ligand. Binding data assays were analyzed using GraphPad Prism 4.0 and IC50 is generated by non-linear regression from dose-response curves.

[2] = biological target: recombinant human mu opioid receptor (Homo sapiens (Human), UniProt P35372); format: binding
Procedure: as §1, §2, §3

[3] = biological target: T1, recombinant human delta opioid receptor (Homo sapiens (Human), UniProt P41143); settings: Ki relative to nalbuphine
T1 sequence (P41143 whole entry, looked up): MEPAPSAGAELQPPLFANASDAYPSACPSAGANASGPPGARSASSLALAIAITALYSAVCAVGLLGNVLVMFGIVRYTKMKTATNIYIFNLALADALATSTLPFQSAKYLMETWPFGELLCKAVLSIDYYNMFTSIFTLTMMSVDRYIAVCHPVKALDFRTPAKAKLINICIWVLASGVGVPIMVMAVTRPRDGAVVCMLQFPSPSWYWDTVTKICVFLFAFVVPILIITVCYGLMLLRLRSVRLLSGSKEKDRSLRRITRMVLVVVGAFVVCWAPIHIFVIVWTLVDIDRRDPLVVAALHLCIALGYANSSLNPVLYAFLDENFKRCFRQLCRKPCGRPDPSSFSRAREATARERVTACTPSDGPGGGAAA
Procedure: as §1, §2, §3

[4] = biological target: T1, recombinant human delta opioid receptor; settings: GTP-γS binding, up to 10 μM
Procedure: The reaction is initiated by 0.3 nM [^35S]GTPγS for an additional 30 minutes incubation period.

[5] = rats, 25 mg/kg intravenously, one hour after injection

COCCOCCOCCO[C@H]1CC[C@@]2(O)[C@H]3Cc4ccc(O)c5c4[C@@]2(CCN3CC2CCC2)[C@H]1O5 [6-O-mPEG3-Nalbuphine, 6-O-mPEG3-nalbuphine]
Fold vs Nalbuphine at KAPPA [1]: 8.40
Fold vs Nalbuphine At MU [2]: 1.92
Fold vs Nalbuphine At DELTA [3]: 0.51
effect at the delta opioid receptor [4]: no effect
brain:plasma ratio [5]: 0.23
